These results are taken from patent US10047084B2, “Imidazolone derivatives, pharmaceutical compositions and uses thereof” (BEIJING FORELANDPHARMA CO. LTD., priority 2013, dated 2018).

The target in one assay is mTOR kinase (Homo sapiens (Human), UniProt P42345). Description: mTOR kinase activity assay (TR-FRET, GFP-4EBP1 substrate). The note with it: read-out: Enzyme (mTOR) IC50. The class given is biochemical. The protocol: 1. mTOR Kinase Activity Assay: The inhibition of the mTOR protein kinase activity by the compounds was determined by the enzymatic activity assay in vitro. The detection kit supplied by Invitrogen was used to detect the inhibition of the activity of the mTOR […]. The principle of the assay was as follows: mTOR kinase, fluorescein-labeled substrate and ATP were mixed, and after the reaction, EDTA and terbium-labeled first antibody were added. During the chemical reaction process of the mTOR kinase, the antibody recognized the phosphorylated and fluorescein-labeled substrate, and then the “time-resolved fluorescence resonance energy transfer” (TR-FRET) effect was enhanced. TR-FRET effect was calculated as the ratio of signals from the acceptor fluorescein to signals from the donor terbium. The amount of the antibody bound to the tracer was directly proportional to the amount of the phosphorylated substrate after the reaction. In this way, the kinase activity can be detected. In this assay, the substrate of the mTOR kinase was green fluorescent protein-coupled 4E binding protein 1 (GFP-4EBP1).
Sequence of mTOR kinase (P42345 1360-2549): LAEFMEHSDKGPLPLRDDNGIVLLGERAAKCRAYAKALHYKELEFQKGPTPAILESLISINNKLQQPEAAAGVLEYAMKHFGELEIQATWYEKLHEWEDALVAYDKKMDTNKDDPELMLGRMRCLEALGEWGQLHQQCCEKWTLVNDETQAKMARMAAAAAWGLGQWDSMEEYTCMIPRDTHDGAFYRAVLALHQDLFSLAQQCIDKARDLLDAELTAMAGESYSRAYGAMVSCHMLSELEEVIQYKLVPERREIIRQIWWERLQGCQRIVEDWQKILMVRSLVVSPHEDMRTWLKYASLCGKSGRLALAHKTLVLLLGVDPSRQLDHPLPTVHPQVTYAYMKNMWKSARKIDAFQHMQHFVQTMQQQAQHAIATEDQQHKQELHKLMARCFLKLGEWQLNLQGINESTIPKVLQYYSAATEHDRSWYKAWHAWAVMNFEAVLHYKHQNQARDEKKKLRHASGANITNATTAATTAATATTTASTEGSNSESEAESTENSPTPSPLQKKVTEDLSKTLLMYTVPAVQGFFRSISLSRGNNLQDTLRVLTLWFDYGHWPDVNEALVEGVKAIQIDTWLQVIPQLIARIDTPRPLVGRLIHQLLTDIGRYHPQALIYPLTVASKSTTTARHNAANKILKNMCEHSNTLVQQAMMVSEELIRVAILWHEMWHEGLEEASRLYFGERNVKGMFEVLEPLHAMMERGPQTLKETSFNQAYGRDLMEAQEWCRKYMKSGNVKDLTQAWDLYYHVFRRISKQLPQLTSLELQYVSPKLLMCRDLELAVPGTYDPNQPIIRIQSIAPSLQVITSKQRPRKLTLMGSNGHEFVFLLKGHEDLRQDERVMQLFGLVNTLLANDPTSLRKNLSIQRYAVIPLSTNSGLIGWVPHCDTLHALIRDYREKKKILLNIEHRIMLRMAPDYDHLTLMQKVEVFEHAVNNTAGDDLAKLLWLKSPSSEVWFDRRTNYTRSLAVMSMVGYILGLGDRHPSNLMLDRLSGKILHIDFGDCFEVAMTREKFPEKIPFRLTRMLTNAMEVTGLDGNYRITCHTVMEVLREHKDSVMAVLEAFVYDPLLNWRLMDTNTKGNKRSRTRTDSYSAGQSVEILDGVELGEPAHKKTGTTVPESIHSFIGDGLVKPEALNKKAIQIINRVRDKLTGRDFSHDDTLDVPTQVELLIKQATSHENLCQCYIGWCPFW
1.1 Materials and Instruments:
4-Hydroxyethylpiperazine ethanesulfonic acid (HEPES, Sigma, Cat# SH3375), ethylene glycol-bis-(2-aminoethylether)-tetraacetic acid (EGTA, Sigma, Cat# E3889), manganese chloride (MnCl2, Sigma, Cat# M1787), Tween-20 (Tween-20, Amresco), 1,4-dithiothreitol (DTT, Merck, CB233155),

For assay [1], the target named is PI3K-alpha (PIK3CA/PIK3R1) (Homo sapiens (Human), UniProt P42336). Description: PI3K-alpha enzyme activity assay (ADP Glo). The class given is biochemical. Particulars: read-out: Activity of inhibiting PI3K enzyme IC50. From the text: 3. PI3K-alpha Enzyme Activity Assay: PI3K alpha-ADP Glo Assay was employed. In the determination of PI3K enzyme activity, the detection kit supplied by Promega (Promega, Cat #: V9101) was used to detect the inhibition effect of the compounds on the activity of PI3K enzyme. The adenosine diphosphate produced during the whole enzymic reactions was quantified. The resulting values were used to calculate the activity of PI3K (Table 1).
Sequence of PI3K-alpha (PIK3CA/PIK3R1) (P42336 whole entry, looked up): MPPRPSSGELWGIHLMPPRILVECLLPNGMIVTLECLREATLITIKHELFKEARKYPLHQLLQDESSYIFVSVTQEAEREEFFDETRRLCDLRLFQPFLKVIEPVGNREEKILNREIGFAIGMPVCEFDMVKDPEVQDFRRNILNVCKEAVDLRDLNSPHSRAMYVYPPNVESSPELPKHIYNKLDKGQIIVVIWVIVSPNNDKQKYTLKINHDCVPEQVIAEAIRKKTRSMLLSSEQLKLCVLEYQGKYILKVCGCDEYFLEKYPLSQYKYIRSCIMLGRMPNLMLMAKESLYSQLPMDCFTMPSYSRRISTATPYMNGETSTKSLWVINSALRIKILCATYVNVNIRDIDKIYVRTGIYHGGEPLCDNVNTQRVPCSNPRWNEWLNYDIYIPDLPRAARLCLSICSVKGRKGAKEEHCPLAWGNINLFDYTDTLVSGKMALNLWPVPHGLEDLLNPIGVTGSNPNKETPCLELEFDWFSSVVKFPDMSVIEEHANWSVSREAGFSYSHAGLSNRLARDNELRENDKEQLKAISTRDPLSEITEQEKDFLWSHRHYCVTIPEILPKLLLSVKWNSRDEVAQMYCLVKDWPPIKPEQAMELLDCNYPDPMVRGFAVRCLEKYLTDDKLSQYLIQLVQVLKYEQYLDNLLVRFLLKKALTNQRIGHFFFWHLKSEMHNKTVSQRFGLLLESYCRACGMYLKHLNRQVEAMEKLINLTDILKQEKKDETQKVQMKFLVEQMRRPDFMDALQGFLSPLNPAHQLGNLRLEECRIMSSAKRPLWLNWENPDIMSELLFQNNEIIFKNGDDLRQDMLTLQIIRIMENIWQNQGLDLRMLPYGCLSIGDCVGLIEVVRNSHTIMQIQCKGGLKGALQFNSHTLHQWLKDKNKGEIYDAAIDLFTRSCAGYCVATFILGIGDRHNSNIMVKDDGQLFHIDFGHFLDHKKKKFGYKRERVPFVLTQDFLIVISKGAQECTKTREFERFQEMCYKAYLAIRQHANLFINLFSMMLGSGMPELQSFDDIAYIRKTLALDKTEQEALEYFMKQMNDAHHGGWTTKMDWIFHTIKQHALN
Sequence of PI3K-alpha (PIK3CA/PIK3R1) (P27986 whole entry partner, looked up): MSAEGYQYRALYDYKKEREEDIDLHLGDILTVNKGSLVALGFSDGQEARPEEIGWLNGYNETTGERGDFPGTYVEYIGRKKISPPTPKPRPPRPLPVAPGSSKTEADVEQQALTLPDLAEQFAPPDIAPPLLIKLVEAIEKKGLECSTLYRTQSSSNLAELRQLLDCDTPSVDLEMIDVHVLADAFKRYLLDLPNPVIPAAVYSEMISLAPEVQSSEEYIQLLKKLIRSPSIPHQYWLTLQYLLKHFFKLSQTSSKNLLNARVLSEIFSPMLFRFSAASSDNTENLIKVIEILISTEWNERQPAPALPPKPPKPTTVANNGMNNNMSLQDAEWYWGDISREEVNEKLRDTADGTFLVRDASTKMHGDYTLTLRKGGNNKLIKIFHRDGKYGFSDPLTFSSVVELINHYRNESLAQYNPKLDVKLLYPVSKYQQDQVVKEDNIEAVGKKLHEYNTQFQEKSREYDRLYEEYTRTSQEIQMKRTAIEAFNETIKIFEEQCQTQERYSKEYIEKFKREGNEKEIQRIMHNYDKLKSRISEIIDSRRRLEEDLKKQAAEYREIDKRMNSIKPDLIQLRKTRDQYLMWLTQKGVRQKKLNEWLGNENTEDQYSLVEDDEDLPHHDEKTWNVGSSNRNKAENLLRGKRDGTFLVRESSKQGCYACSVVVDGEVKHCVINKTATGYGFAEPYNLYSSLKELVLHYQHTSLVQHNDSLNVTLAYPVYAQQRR
3.1 Detection reagents: PIK3CA/PIK3R1 purchased from Invitrogen (Cat #: PV4788): The active kinase was diluted with kinase diluent III; and mixed with bovine serum albumin (BSA) in a ratio of 1:4 (5×dilution). The final BSA concentration was 50 ng/ml; and the compositions of Kinase Detection Solution I were: 25 mM MOPS, pH7.2, 12.5 mM β-glycerophosphate, 25 mM magnesium chloride, 5 mM EGTA, and 2 mM EDTA. Before use, 0.25 mM DTT was added to Kinase Detection Solution I; 250 μM adenosine triphosphate (ATP) Detection solution: 0.55 mg of ATP was dissolved in 4 ml of Kinase Detection Solution I, subdivided in 200 μl/vial and stored at −20° C. Substrate: Phosphatidylinositol (4,5) bis-phosphate; this substrate was diluted with Kinase Detection Solution I to a concentration of 125 μM. Final concentrations were: 10 μM PIP2, 10 μM ATP, 1% DMSO, and 0.0005-10 μM compounds.
a) Experimental Procedure: • 3.2.1 50 μL of the compounds diluted with dimethyl sulfoxide (DMSO) at a concentration of 100 μM were added to the 384-well dilution plate. The compounds were diluted with dimethyl sulfo de (DMSO) in a ratio of 1:3 (10 dilution concentrations plus 1 zero concentration). • 3.2.2 5 μL of the diluted compounds were transferred to the corresponding 384-well black Proxi plate (containing 47.5 μL of detection solution/well), and shaked for several seconds. • 3.2.3 2 μL of 2.5×PI3K working solution was added to 384-well black Proxi plate. • 3.2.4 2 μL of the diluted compounds were added to the detection plate (3 wells for each concentration). • 3.2.5 The plate was incubated at room temperature for 2 h. • 3.2.6 5 μL of ADP Glo Reagent was added. • 3.2.7 The plate was incubated at room temperature for 40 minutes. • 3.2.8 10 μL of the kinase detection reagent was added. • 3.2.9 The plate was incubated at room temperature for 40 minutes. • 3.2.10 The activity was detected by using Envision Reader.
The inhibition of the mTOR […] activity by the compounds ranges in 0.5 to several hundreds nanomoles, see Table 1.

The subject of a further assay is SK-BR3/BT474. Description: CTG cell survival assay, SK-BR3/BT474. The class given is cell-based. Particulars: SK-BR3/BT474 cells. In outline:
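Cells were exposed to compounds in a 3-fold dilution series, with a top final concentration of 10 uM in 0.1% DMSO. Viable cells were quantified by CellTiter-Glo ATP luminescence.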

For `Cn1cc(-c2ccc(-c3ccc4ncc5c(c4c3)n([C@@H]3CCN(S(C)(=O)=O)C3)c(=O)n5C)cn2)cn1` [Example 27, (R)-3-methyl-8-(6-(1-methyl-1H-pyrazol-4-yl)pyridin-3-yl)-1-(1-(methanesulfonyl)pyrrolidin-3-yl)-1H-imidazo[4,5-c]quinolin-2(3H)-one], the values for the IC50 (at mTOR kinase; in assay [1]) were 100 to 1000 nM and < 10 nM, respectively. Besides, in the assay with SK-BR3/BT474, the EC50 was < 1000 nM.
